Columns and labels:
HeLa cells = experiment: Cytotoxicity evaluation, MTT assay; assay type: cell-based; settings: 48 h
Procedure: The cytotoxicity of each sample was determined by measuring the inhibition of cell growth using a tetrazolium dye (MTT) assay. […] HeLa cells (5×10^3 cell/mL) harvested in a logarithmic growth phase were seeded on 96 wells in Dulbecco's modified Eagle's medium (DMEM) with 10% fetal bovine serum (FBS) in a humidified atmosphere of 5% CO2 at 37° C. After the HeLa cells had been incubated in a logarithmic growth phase, samples with various concentrations of Dox were added for 48 h of co-culturing. At the end of the experiment, the MTT assay was conducted and the percentage of cell viability was calculated. Additionally, material cytotoxicities were measured using HeLa cells (5×10^3 cell/mL). The experimental process was identical to that described above.
HeLa cells (5×10^3 cell/ml) were used to study the cytotoxicity of free Dox and Dox-loaded mixed micelle by measuring the inhibition of cell growth using a tetrazolium dye (MTT) assay.
The Dox-loaded multifunctional micelles and free Dox were tested for in vitro cytotoxicity using a tetrazolium dye (MTT) method. The MTT-based cytotoxic activities of the Dox-loaded multifunctional micelles and free DOX were compared after 24 h and 72 h incubation with HeLa cells.

[1] = system: HepG2 (human hepatocellular carcinoma) cells; experiment: Internalization evaluation by confocal laser scanning microscopy with LysoTracker; assay type: cell-based; settings: Dox ca. 10 μg/mL
Procedure: Internalization Evaluation. Accumulated Dox in HepG2 cells was localized using a Carl Zeiss LSM5 PASCAL confocal laser scanning microscope (CLSM). The […] cells were seeded on coverslides for 24 h and then treated with free Dox or Dox-loaded mixed micelles. Dox-loaded mixed micelles were washed with PBS twice to remove untrapped Dox before use. The concentration of Dox was ca. 10 μg/mL. After an interval, the cells were washed twice with PBS; then, the LysoTracker was added in a culture medium without FBS. After 30 min of incubation, the cells were washed with PBS and mounted on a slide with 4 wt % paraformaldehyde for CLSM observation. Fluorescence observation was carried out with a confocal microscope at 488 nm for excitation and an LP (long-pass) filter of 590 nm for Dox detection. […]
Confocal laser scanning microscopy (CLSM) was used to observe the intracellular drug release of mixed micelles. Confocal images were taken to observe the time-dependent fluorescence intensity of LysoTracker and Dox after mixed micelles were incubated with HepG2 (human hepatocellular carcinoma) cells. The red fluorescence from Dox and the green fluorescence from LysoTracker were detected in the intracellular compartment. […] Fluorescence from LysoTracker occurred in both the nucleus and cytoplasm because these are acidified by doxorubicin hydrochloride. […]

SMILES: COc1cccc2c1C(=O)c1c(O)c3c(c(O)c1C2=O)C[C@@](O)(C(=O)CO)C[C@@H]3O[C@H]1C[C@H](N)[C@H](O)[C@H](C)O1 [free Dox, doxorubicin]
- activity compared with Dox-loaded mixed micelles and Dox-loaded Graft I micelles (HeLa cells): more potent activity
- localization of Dox fluorescence ([1]; 1 h incubation): concentrated in the nucleus
- localization of Dox fluorescence ([1]; 8 h incubation): concentrated in the nucleus

— US20080081075A1, “Multifunctional mixed micelle of graft and block copolymers and preparation thereof” (National Tsing Hua University, priority 2006, published 2008)
